Assay results reported in patent US11285130B2, “Treatment of mitochondrial diseases” (Khondrion IP B.V., priority 2017, dated 2022).
Where two headings read alike, the source gives them in different places.

Key:
[1] = SAD study pharmacokinetic analysis; format: in vivo, human; settings: for AUC(0-t) / Cmax / Tmax / AUC(0-inf) / half-life: male, human, plasma, oral; for AUC(0-t): read-out: AUClast (Geomean); for Cmax: read-out: Cmax (Geomean); for AUC(0-inf): read-out: AUC0-inf (Geomean)
Procedure: (§1) Dose escalation to the next dose level was done after evaluation of the safety and the first 24-hour pharmacokinetic results of the previous dose. […] Anticipated exposures at this starting dose were just below the Minimum Anticipated Biological Effect Level (MABEL). Placebo (an in taste and appearance matching oral liquid) was also administered orally on one occasion in the single-ascending dose part and b.i.d. for 7 Days in the MAD part. […] All samples were stored at <-70° C. until analysis. […] For mean value calculations, all values below the limit of quantification (LOQ) were set to zero. […] The non-compartmental pharmacokinetic analysis was performed using Phoenix, Version 6.3 (Pharsight Corporation, Mountain View, Calif., USA). […] The PK parameters were calculated on the basis of the actual blood sampling time points relative to dosing. Selected pharmacokinetic parameters (Cmax, tmax, t1/2, AUClast and AUC0-int) following single-dose administration and selected pharmacokinetic parameters Cmax, tmax, [NT], the accumulation factor (Racc) and time to reach steady state) following multiple dose administration were determined. In urine, the percentage of dose excreted in urine was determined for the single- and multiple-dose administration.

[2] = MAD study pharmacokinetic analysis; format: in vivo, human; settings: for AUC / Cmax / Tmax: male, human, plasma, oral; for Cmax: read-out: Cmax (Geomean); for Tmax: read-out: tmax* (median)
Procedure: as §1

hERG potassium channel = hERG potassium channel (Homo sapiens, UniProt Q12809); test: hERG blocking; format: biochemical
Chain of hERG potassium channel (Q12809 whole entry): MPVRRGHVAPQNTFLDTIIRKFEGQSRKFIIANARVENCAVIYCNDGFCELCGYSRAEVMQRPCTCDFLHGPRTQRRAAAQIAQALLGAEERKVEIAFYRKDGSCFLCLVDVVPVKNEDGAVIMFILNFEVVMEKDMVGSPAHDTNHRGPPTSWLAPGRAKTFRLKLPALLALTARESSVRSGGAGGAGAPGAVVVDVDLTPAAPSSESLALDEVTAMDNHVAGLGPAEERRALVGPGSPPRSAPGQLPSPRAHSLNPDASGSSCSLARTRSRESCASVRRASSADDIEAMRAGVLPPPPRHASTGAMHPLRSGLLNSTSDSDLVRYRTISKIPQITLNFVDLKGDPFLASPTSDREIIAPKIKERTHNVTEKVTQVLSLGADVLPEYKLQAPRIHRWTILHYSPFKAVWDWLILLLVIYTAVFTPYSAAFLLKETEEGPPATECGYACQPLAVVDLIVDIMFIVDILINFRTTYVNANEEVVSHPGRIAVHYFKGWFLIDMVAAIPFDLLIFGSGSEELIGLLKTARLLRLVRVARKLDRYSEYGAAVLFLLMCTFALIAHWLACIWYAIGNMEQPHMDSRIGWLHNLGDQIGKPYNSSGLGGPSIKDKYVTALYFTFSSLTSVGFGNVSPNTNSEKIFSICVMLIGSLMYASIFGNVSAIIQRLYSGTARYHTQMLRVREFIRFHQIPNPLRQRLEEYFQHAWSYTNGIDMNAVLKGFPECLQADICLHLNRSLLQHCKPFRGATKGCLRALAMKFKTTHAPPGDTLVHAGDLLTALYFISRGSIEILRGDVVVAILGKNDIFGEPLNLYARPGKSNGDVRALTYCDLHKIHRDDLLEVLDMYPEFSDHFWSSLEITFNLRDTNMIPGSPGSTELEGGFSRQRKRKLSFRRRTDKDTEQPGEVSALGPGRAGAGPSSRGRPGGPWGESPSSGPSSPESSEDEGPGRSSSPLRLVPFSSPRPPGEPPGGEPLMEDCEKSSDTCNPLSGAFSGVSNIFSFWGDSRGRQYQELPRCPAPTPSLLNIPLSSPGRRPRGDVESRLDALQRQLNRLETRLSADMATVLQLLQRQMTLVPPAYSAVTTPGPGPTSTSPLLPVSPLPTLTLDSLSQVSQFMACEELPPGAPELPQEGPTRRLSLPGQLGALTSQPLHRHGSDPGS

[3] = male, human, in vivo
Procedure: The changes from baseline (pre-dose assessment on Day 1) for body weight, physical examinations, vital signs, ECG-variables and clinical laboratory variables were determined for each time point. Treatment-emergent laboratory and ECG abnormalities as well as adverse events were monitored throughout the study, up to 28 Days after the last study drug intake.
The goal of this post-hoc optimization study was to repeat the ECG assessment with an highly automated computer-assisted approach where in addition to the re-evaluation of standard intervals (PR, QRS and QT intervals), a set of parameters describing repolarization morphology were considered. The morphology indices were the TpTe interval (interval from the T wave apex to the end of the T wave), the TpTe/QT index (the ratio between the TpTe interval and the QT interval), Tamp (the amplitude in microvolt units of the T wave) and TSym (an index of repolarization morphology based on the symmetry of the T wave).
ECGs were digitally recorded using a Schiller AT104 ECG machine (500 Hz, 1 μV). Cardiac interval measurements were performed on the Global Superimposed Median Beat (GSMB), a methodology that allows measurements that consider each of the 12 individual median beats. This measurement methodology ensures that the PR, QRS, and QT interval are measured from the earliest onset in any lead to the latest deflection in any lead. Cardiologist overview of the computer-based measurements is based on the superimposed (overlapped) display of the individual median beats, to assure measurements are performed at the earliest onset of any viable lead to the latest offset of any viable lead.
The RR interval used for heart-rate correction of the QT interval (QTcB) was based on all the beats in the ten second recording. […]
For the pre-dose (baseline) ECGs, all parameters per time point were calculated as the averages of the triplicate ECGs. […]
The over-reading cardiologist provided a clinical interpretation for each ECG at each time point. […]

[4] = 10 mg, SAD, KH176 10 mg, fasted
[5] = 30 mg, SAD, KH176 30 mg, fasted
[6] = 100 mg, SAD, KH176 100 mg, fasted
[7] = 300 mg, SAD, KH176 300 mg, fasted
[8] = 800 mg, SAD, KH176 800 mg, fasted
[9] = 2000 mg, SAD, KH176 2000 mg, fasted
[10] = 100 mg, MAD, KH176 100 mg b.i.d, Day 1
[11] = 100 mg, MAD, KH176 100 mg b.i.d, Day 7
[12] = 200 mg, MAD, KH176 200 mg b.i.d, Day 1
[13] = 200 mg, MAD, KH176 200 mg b.i.d, Day 7
[14] = 400 mg, MAD, KH176 400 mg b.i.d, Day 1
[15] = 400 mg, MAD, KH176 400 mg b.i.d, Day 7

Question: Which “AUC0-inf ratio (fed/fasted), 90% CI” value ([1]; 100 mg, fed versus fasted) does the source give for `Cc1c(C)c2c(c(C)c1O)CC[C@@](C)(C(=O)N[C@@H]1CCCNC1)O2.Cl` [KH176, (S)-6-hydroxy-2,5,7,8-tetramethyl-N-((R)-piperidin-3-yl)chroman-2-carboxamide hydrochloride] here?
Answer: Its value is 1.28 (90% Cl 1.12-1.45).

Question: What about the “administered dose excreted in urine as unchanged KH176” value ([1]; SAD) of the same compound?
Answer: Its value is “approximately 12%”.

Question: What about the AUC(0-t) [1, 4] of the same compound?
Answer: The AUC(0-t) was 75 ng·h/mL.

Question: And the Cmax [1, 4]?
Answer: The Cmax was 12.9 ng/mL.

Question: What about the Tmax ([1]; 10 mg, SAD, KH176 10 mg, fasted, read-out: tmax* (median)) of the same compound?
Answer: Its Tmax is 1.25 h.

Question: And the AUC(0-inf) [1, 5]?
Answer: The AUC(0-inf) was 474 ng·h/mL.

Question: What about the AUC(0-t) [1, 5] of the same compound?
Answer: Its AUC(0-t) is 389 ng·h/mL.

Question: And the Cmax [1, 5]?
Answer: Its Cmax is 56.2 ng/mL.

Question: And the half-life ([1]; 30 mg, SAD, KH176 30 mg, fasted, read-out: t1/2 (Geomean) (converted))?
Answer: Its half-life is 10.3 h.

Question: And the Tmax ([1]; 30 mg, SAD, KH176 30 mg, fasted, read-out: tmax* (median))?
Answer: The Tmax was 1.25 h.

Question: And the AUC(0-inf) [1, 6]?
Answer: Its AUC(0-inf) is 1540 ng·h/mL.

Question: What about the AUC(0-t) [1, 6] of the same compound?
Answer: Its AUC(0-t) is 1310 ng·h/mL.

Question: What about the Cmax [1, 6] of the same compound?
Answer: The Cmax was 167 ng/mL.

Question: What about the half-life ([1]; 100 mg, SAD, KH176 100 mg, fasted, read-out: t1/2 (Geomean) (converted)) of the same compound?
Answer: The half-life was 9.1 h.

Question: And the Tmax ([1]; 100 mg, SAD, KH176 100 mg, fasted, read-out: tmax* (median))?
Answer: The Tmax was 1 h.

Question: What about the AUC(0-inf) ([1]; 100 mg, SAD, KH176 100 mg, fed) of the same compound?
Answer: Its AUC(0-inf) is 1970 ng·h/mL.

Question: And the AUC(0-t) ([1]; 100 mg, SAD, KH176 100 mg, fed)?
Answer: The AUC(0-t) was 1650 ng·h/mL.

Question: What about the Cmax ([1]; 100 mg, SAD, KH176 100 mg, fed) of the same compound?
Answer: Its Cmax is 165 ng/mL.

Question: What about the half-life ([1]; 100 mg, SAD, KH176 100 mg, fed, read-out: t1/2 (Geomean) (converted)) of the same compound?
Answer: Its half-life is 9.09 h.

Question: What about the Tmax ([1]; 100 mg, SAD, KH176 100 mg, fed, read-out: tmax* (median)) of the same compound?
Answer: The Tmax was 2.5 h.

Question: And the Tmax ([1]; 100 mg, fasted condition (100 mg), read-out: median tmax)?
Answer: The Tmax was ~1 h.

Question: And the Tmax ([1]; 100 mg, fed condition (100 mg, high calorie/high fat breakfast), read-out: median tmax)?
Answer: The Tmax was 2.5 h.

Question: What about the AUC(0-inf) [1, 7] of the same compound?
Answer: Its AUC(0-inf) is 7500 ng·h/mL.

Question: What about the AUC(0-t) [1, 7] of the same compound?
Answer: The AUC(0-t) was 6320 ng·h/mL.

Question: What about the Cmax [1, 7] of the same compound?
Answer: Its Cmax is 766 ng/mL.

Question: And the half-life ([1]; 300 mg, SAD, KH176 300 mg, fasted, read-out: t1/2 (Geomean) (converted))?
Answer: Its half-life is 9.64 h.

Question: And the Tmax ([1]; 300 mg, SAD, KH176 300 mg, fasted, read-out: tmax* (median))?
Answer: The Tmax was 0.992 h.

Question: And the AUC(0-inf) [1, 8]?
Answer: Its AUC(0-inf) is 25800 ng·h/mL.

Question: And the AUC(0-t) [1, 8]?
Answer: The AUC(0-t) was 21000 ng·h/mL.

Question: And the Cmax [1, 8]?
Answer: The Cmax was 2170 ng/mL.

Question: And the half-life ([1]; 800 mg, SAD, KH176 800 mg, fasted, read-out: t1/2 (Geomean) (converted))?
Answer: Its half-life is 9.8 h.

Question: And the Tmax ([1]; 800 mg, SAD, KH176 800 mg, fasted, read-out: tmax* (median))?
Answer: Its Tmax is 1.5 h.

Question: And the AUC(0-inf) [1, 9]?
Answer: Its AUC(0-inf) is 79100 ng·h/mL.

Question: What about the AUC(0-t) [1, 9] of the same compound?
Answer: The AUC(0-t) was 61200 ng·h/mL.

Question: What about the Cmax [1, 9] of the same compound?
Answer: The Cmax was 5990 ng/mL.

Question: And the half-life ([1]; 2000 mg, SAD, KH176 2000 mg, fasted, read-out: t1/2 (Geomean) (converted))?
Answer: Its half-life is 11.5 h.

Question: And the Tmax ([1]; 2000 mg, SAD, KH176 2000 mg, fasted, read-out: tmax* (median))?
Answer: The Tmax was 0.75 h.

Question: And the Tmax ([1]; SAD, across doses, read-out: median tmax)?
Answer: Its Tmax is 0.75 to 1.5 h.

Question: And the half-life ([1]; SAD, approximate, across dose groups, read-out: t1/2 (converted))?
Answer: The half-life was ~10 h.

Question: What about the Tmax ([1]; single- and multiple-dose administration, read-out: median tmax) of the same compound?
Answer: The Tmax was 0.75 to 2 h.

Question: And the “Racc (accumulation ratio, Geomean)” value ([2]; MAD, KH176 100 mg b.i.d, Day 7)?
Answer: Its value is 2.52.

Question: And the “Racc (accumulation ratio, Geomean)” value ([2]; MAD, KH176 200 mg b.i.d, Day 7)?
Answer: The value was 2.65.

Question: What about the “Racc (accumulation ratio, Geomean)” value ([2]; MAD, KH176 400 mg b.i.d, Day 7) of the same compound?
Answer: Its value is 2.17.

Question: What about the “steady concentrations reached by (first trough measurement)” value ([2]; MAD, mean trough concentration-time curves) of the same compound?
Answer: The value was ≤ 4 days.

Question: What about the AUC ([2]; 100 mg, MAD, KH176 100 mg b.i.d, Day 1, read-out: AUCtau (Geomean)) of the same compound?
Answer: The AUC was 1090 ng·h/mL.

Question: What about the Cmax [2, 10] of the same compound?
Answer: Its Cmax is 184 ng/mL.

Question: What about the Tmax [2, 10] of the same compound?
Answer: Its Tmax is 1.25 h.

Question: And the AUC ([2]; 100 mg, MAD, KH176 100 mg b.i.d, Day 7, read-out: AUCtau (Geomean))?
Answer: Its AUC is 2760 ng·h/mL.

Question: And the Cmax [2, 11]?
Answer: The Cmax was 353 ng/mL.

Question: And the Tmax [2, 11]?
Answer: Its Tmax is 1 h.

Question: What about the AUC ([2]; 200 mg, MAD, KH176 200 mg b.i.d, Day 1, read-out: AUCtau (Geomean)) of the same compound?
Answer: The AUC was 2250 ng·h/mL.

Question: What about the Cmax [2, 12] of the same compound?
Answer: The Cmax was 313 ng/mL.

Question: What about the Tmax [2, 12] of the same compound?
Answer: Its Tmax is 1.75 h.

Question: What about the AUC ([2]; 200 mg, MAD, KH176 200 mg b.i.d, Day 7, read-out: AUCtau (Geomean)) of the same compound?
Answer: The AUC was 5960 ng·h/mL.

Question: And the Cmax [2, 13]?
Answer: Its Cmax is 748 ng/mL.

Question: What about the Tmax [2, 13] of the same compound?
Answer: Its Tmax is 2 h.

Question: What about the AUC ([2]; 400 mg, MAD, KH176 400 mg b.i.d, Day 1, read-out: AUCtau (Geomean)) of the same compound?
Answer: The AUC was 6890 ng·h/mL.

Question: What about the Cmax [2, 14] of the same compound?
Answer: The Cmax was 1330 ng/mL.

Question: What about the Tmax [2, 14] of the same compound?
Answer: The Tmax was 1 h.

Question: And the AUC ([2]; 400 mg, MAD, KH176 400 mg b.i.d, Day 7, read-out: AUCtau (Geomean))?
Answer: The AUC was 14900 ng·h/mL.

Question: And the Cmax [2, 15]?
Answer: Its Cmax is 2100 ng/mL.

Question: And the Tmax [2, 15]?
Answer: The Tmax was 1.5 h.

Question: And the AUC ([2]; steady state, BID, read-out: AUCtau (one dosing interval, 12 hours), range)?
Answer: The AUC was 2130 to 3680 ng·h/mL.

Question: What about the “average concentrations, range” value ([2]; steady state, 100 mg BID) of the same compound?
Answer: The value was 177.5 to 306.6 ng/mL.

Question: What about the “maximum concentration, range” value ([2]; steady state, 100 mg BID, healthy subjects) of the same compound?
Answer: The value was 303 to 458 ng/mL.

Question: And the “IC50 of hERG blocking relative to the Cmax for the highest dose” value (hERG potassium channel)?
Answer: Its value is 3 times.

Question: And the “KH176 exposure with no significant prolongation of the TpTe interval compared to placebo” value [3]?
Answer: The value was “lower than 500 ng/ml”.

Question: What about the “plasma concentrations at which effects on repolarization seem to start” value [3] of the same compound?
Answer: The value was 500 to 1000 ng/mL.

Question: What about the “QTcF, largest median baseline increase” value ([3]; 1 h) of the same compound?
Answer: The value was 46.8 ms.
